Results published in patent US20110081315A1, “NOVEL MACROCYCLIC INHIBITORS OF HEPATITIS C VIRUS REPLICATION” (INTERMUNE, INC., priority 2009, published 2011).
Like-named read-outs stand apart in the source and are kept apart here.

Experiments:
hepatitis C replicon = hepatitis C replicon EC50 assay; type: cell-based; settings: Hepatitis C virus
Method in brief: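 NS3/NS4 protease complexes were formed and compound inhibitory concentrations (IC50) measured at ambient temperature (23° C.) in 50 mM Tris-HCl, pH 7.5, with 15% glycerol, 0.6 mM LDAO, 25 μM NS4A peptide and 10 mM DTT. Replicon EC50 values come from a standard HCV replicon cell assay.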

NS3/NS4 complexes = NS3/NS4 complexes (Hepatitis C virus genotype 1a, UniProt P27958); assay: NS3/NS4 inhibition assay (IC50); type: biochemical; settings: NS3/NS4 activity; 23° C., 25 μM NS4A peptide
Sequence of NS3/NS4 complexes (P27958 1027-1657, one chain of several): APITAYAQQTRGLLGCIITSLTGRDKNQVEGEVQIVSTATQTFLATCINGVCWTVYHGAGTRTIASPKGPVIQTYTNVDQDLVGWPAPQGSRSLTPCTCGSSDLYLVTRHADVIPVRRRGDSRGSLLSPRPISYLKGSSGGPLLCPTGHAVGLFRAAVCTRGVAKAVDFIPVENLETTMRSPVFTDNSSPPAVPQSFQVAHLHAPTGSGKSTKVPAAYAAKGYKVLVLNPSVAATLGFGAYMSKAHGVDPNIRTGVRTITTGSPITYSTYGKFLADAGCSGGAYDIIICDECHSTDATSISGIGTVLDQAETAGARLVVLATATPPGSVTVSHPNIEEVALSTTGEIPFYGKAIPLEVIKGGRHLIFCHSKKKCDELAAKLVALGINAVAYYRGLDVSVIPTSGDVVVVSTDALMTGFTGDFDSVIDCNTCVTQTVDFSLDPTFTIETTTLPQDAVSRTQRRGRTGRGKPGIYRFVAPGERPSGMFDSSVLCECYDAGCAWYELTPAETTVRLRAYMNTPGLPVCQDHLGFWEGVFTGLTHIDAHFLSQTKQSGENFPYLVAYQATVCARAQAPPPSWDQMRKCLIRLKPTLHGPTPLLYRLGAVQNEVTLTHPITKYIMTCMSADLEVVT
Method in brief: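 Read-outs are IC50 for inhibition of the NS3/NS4 complex and EC50 in an HCV replicon system. Biochemical runs use 23° C. and a 50 mM Tris-HCl (pH 7.5) buffer with 15% glycerol, 10 mM DTT, 0.6 mM LDAO and 25 μM NS4A peptide.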

[1] = hepatitis C replicon, read-out: EC50

SMILES	EC50 (hepatitis C replicon; [1])	IC50 (NS3/NS4 complexes)	EC50 (hepatitis C replicon)
CC(C)c1nc(-c2cccc3c2nc(O[C@@H]2C[C@H]4C(=O)N[C@]5(C(=O)NS(=O)(=O)N(C)C)C[C@H]5/C=C\CCCCC[C@H](Nc5ccccc5)C(=O)N4C2)n3C(C)C)sc1C(C)C [Compound 1218]	> 100 nM	< 10 nM	
Cc1sc(-c2c(F)ccc3c2nc(O[C@@H]2C[C@H]4C(=O)N[C@]5(C(=O)NS(=O)(=O)N(C)C)C[C@H]5/C=C\CCCCC[C@H](NC(=O)OC(C)(C)C)C(=O)N4C2)n3C(C)C)nc1C(C)C [Compound 1219]	< 10 nM	< 10 nM	
Cc1oc(-c2c(F)ccc3c2nc(O[C@@H]2C[C@H]4C(=O)N[C@]5(C(=O)NS(=O)(=O)N(C)C)C[C@H]5/C=C\CCCCC[C@H](NC(=O)OC(C)(C)C)C(=O)N4C2)n3C(C)C)nc1C(C)C [Compound 1220]	< 10 nM	< 10 nM	
CC(C)c1csc(NC(=O)c2cccc3c2nc(O[C@@H]2C[C@H]4C(=O)N[C@]5(C(=O)NS(=O)(=O)N(C)C)C[C@H]5/C=C\CCCCC[C@H](NC(=O)OC(C)(C)C)C(=O)N4C2)n3C(C)C)n1 [Compound 1221]	< 10 nM	< 10 nM	
CC(C)n1c(O[C@@H]2C[C@H]3C(=O)N[C@]4(C(=O)NS(=O)(=O)N(C)C)C[C@H]4/C=C\CCCCC[C@H](NC(=O)OC(C)(C)C)C(=O)N3C2)nc2c(C(=O)NCc3nccs3)cccc21 [Compound 1222]	< 10 nM	< 10 nM	
CCCn1c(O[C@@H]2C[C@H]3C(=O)N[C@]4(C(=O)NS(=O)(=O)N(C)C)C[C@H]4/C=C\CCCCC[C@H](NC(=O)OC(C)(C)C)C(=O)N3C2)nc2ccccc21 [Compound 1223]	< 10 nM	< 10 nM	
CCC(C)n1c(O[C@@H]2C[C@H]3C(=O)N[C@]4(C(=O)NS(=O)(=O)N(C)C)C[C@H]4/C=C\CCCCC[C@H](NC(=O)OC(C)(C)C)C(=O)N3C2)nc2ccccc21 (some centres unmarked) [Compound 1224]	< 10 nM	< 10 nM	
Cc1nc2cc(O[C@@H]3C[C@H]4C(=O)N[C@]5(C(=O)NS(=O)(=O)C6(C)CC6)C[C@H]5/C=C\CCCCC[C@H](NC(=O)OC(C)(C)C)C(=O)N4C3)ccc2o1 [Compound 1251]	10 to 100 nM	< 10 nM	
Cc1nc2cc(O[C@@H]3C[C@H]4C(=O)N[C@]5(C(=O)NS(=O)(=O)C6(C)CC6)C[C@H]5/C=C\CCCCC[C@H](Nc5ccccc5)C(=O)N4C3)ccc2o1 [Compound 1252]	10 to 100 nM	< 10 nM	
Cc1nc2cc(O[C@@H]3C[C@H]4C(=O)N[C@]5(C(=O)NS(=O)(=O)N(C)C)C[C@H]5/C=C\CCCCC[C@H](NC(=O)OC(C)(C)C)C(=O)N4C3)ccc2s1 [Compound 1253]	> 100 nM	< 10 nM	
CC(C)n1c(O[C@@H]2C[C@H]3C(=O)N[C@]4(C(=O)NS(=O)(=O)C5(C)CC5)C[C@H]4/C=C\CCCCC[C@H](NC(=O)OC(C)(C)C)C(=O)N3C2)nc2c(NS(=O)(=O)Cc3ccccc3)cccc21 [Compound 1401]	< 10 nM	< 10 nM	
CC(C)n1c(O[C@@H]2C[C@H]3C(=O)N[C@]4(C(=O)NS(=O)(=O)C5(C)CC5)C[C@H]4/C=C\CCCCC[C@H](NC(=O)OC(C)(C)C)C(=O)N3C2)nc2c(-c3nc(C4CCCC4)cs3)cccc21 [Compound 1402]	< 10 nM	< 10 nM	
CC(C)c1csc(-c2cccc3c2nc(O[C@@H]2C[C@H]4C(=O)N[C@]5(C(=O)NS(=O)(=O)C6(C)CC6)C[C@H]5/C=C\CCCCC[C@H](NC(=O)OC(C)(C)C)C(=O)N4C2)n3C(C)C)n1 [Compound 1403]	< 10 nM	< 10 nM	
CC(C)c1ccn(-c2cccc3c2nc(O[C@@H]2C[C@H]4C(=O)N[C@]5(C(=O)NS(=O)(=O)C6(C)CC6)C[C@H]5/C=C\CCCCC[C@H](NC(=O)OC(C)(C)C)C(=O)N4C2)n3C(C)C)n1 [Compound 1404]	< 10 nM	< 10 nM	
CCNC(=O)Nc1cccc2c1nc(O[C@@H]1C[C@H]3C(=O)N[C@]4(C(=O)NS(=O)(=O)C5(C)CC5)C[C@H]4/C=C\CCCCC[C@H](Nc4ccccc4)C(=O)N3C1)n2C(C)C [Compound 1405]	10 to 100 nM	< 10 nM	
CNC(=O)Nc1cccc2c1nc(O[C@@H]1C[C@H]3C(=O)N[C@]4(C(=O)NS(=O)(=O)C5(C)CC5)C[C@H]4/C=C\CCCCC[C@H](Nc4ccccc4)C(=O)N3C1)n2C(C)C [Compound 1406]	> 100 nM	< 10 nM	
CC(C)NC(=O)Nc1cccc2c1nc(O[C@@H]1C[C@H]3C(=O)N[C@]4(C(=O)NS(=O)(=O)C5(C)CC5)C[C@H]4/C=C\CCCCC[C@H](Nc4ccccc4)C(=O)N3C1)n2C(C)C [Compound 1407]	10 to 100 nM	< 10 nM	
CC(C)n1c(O[C@@H]2C[C@H]3C(=O)N[C@]4(C(=O)NS(=O)(=O)C5(C)CC5)C[C@H]4/C=C\CCCCC[C@H](Nc4ccccc4)C(=O)N3C2)nc2c(N)cccc21 [Compound 1408]	10 to 100 nM	< 10 nM	
CCOC(=O)Nc1cccc2c1nc(O[C@@H]1C[C@H]3C(=O)N[C@]4(C(=O)NS(=O)(=O)C5(C)CC5)C[C@H]4/C=C\CCCCC[C@H](Nc4ccccc4)C(=O)N3C1)n2C(C)C [Compound 1409]	< 10 nM	< 10 nM	
CC(C)n1c(O[C@@H]2C[C@H]3C(=O)N[C@]4(C(=O)NS(=O)(=O)C5(C)CC5)C[C@H]4/C=C\CCCCC[C@H](Nc4ccccc4)C(=O)N3C2)nc2c(NC(N)=O)cccc21 [Compound 1410]	10 to 100 nM	< 10 nM	
CC(C)n1c(O[C@@H]2C[C@H]3C(=O)N[C@]4(C(=O)NS(=O)(=O)C5(C)CC5)C[C@H]4/C=C\CCCCC[C@H](NC(=O)OC4CCCC4)C(=O)N3C2)nc2c(-c3nc(C4CCCC4)cs3)cccc21 [Compound 1412]	< 10 nM	< 10 nM	
CC(C)n1c(O[C@@H]2C[C@H]3C(=O)N[C@]4(C(=O)NS(=O)(=O)C5(C)CC5)C[C@H]4/C=C\CCCCC[C@H](NC(=O)OC4COC4)C(=O)N3C2)nc2c(-c3nc(C4CCCC4)cs3)cccc21 [Compound 1414]	< 10 nM	< 10 nM	
CC(C)c1csc(-c2cccc3c2nc(O[C@@H]2C[C@H]4C(=O)N[C@]5(C(=O)NS(=O)(=O)C6(C)CC6)C[C@H]5/C=C\CCCCC[C@H](Nc5nccs5)C(=O)N4C2)n3C(C)C)n1 [Compound 1418]	< 10 nM	< 10 nM	
CC(C)n1c(O[C@@H]2C[C@H]3C(=O)N[C@]4(C(=O)NS(=O)(=O)N(C)C)C[C@H]4/C=C\CCCCC[C@H](NC(=O)OC(C)(C)C)C(=O)N3C2)nc2c(N)cccc21 [Compound 1419]	< 10 nM	< 10 nM	
CC(C)n1c(O[C@@H]2C[C@H]3C(=O)N[C@]4(C(=O)NS(=O)(=O)N(C)C)C[C@H]4/C=C\CCCCC[C@H](NC(=O)OC(C)(C)C)C(=O)N3C2)nc2c(NC(=O)Nc3ccccc3)cccc21 [Compound 1420]		< 10 nM	< 10 nM
CC(C)NC(=O)Nc1cccc2c1nc(O[C@@H]1C[C@H]3C(=O)N[C@]4(C(=O)NS(=O)(=O)N(C)C)C[C@H]4/C=C\CCCCC[C@H](NC(=O)OC(C)(C)C)C(=O)N3C1)n2C(C)C [Compound 1421]	< 10 nM	< 10 nM	
CC(C)n1c(O[C@@H]2C[C@H]3C(=O)N[C@]4(C(=O)NS(=O)(=O)N(C)C)C[C@H]4/C=C\CCCCC[C@H](NC(=O)OC(C)(C)C)C(=O)N3C2)nc2c(NC(=O)NCc3ccccc3)cccc21 [Compound 1423]	< 10 nM	< 10 nM	
CC(C)n1c(O[C@@H]2C[C@H]3C(=O)N[C@]4(C(=O)NS(=O)(=O)N(C)C)C[C@H]4/C=C\CCCCC[C@H](NC(=O)OC(C)(C)C)C(=O)N3C2)nc2c(NC(=O)NCCc3ccccc3)cccc21 [Compound 1424]		< 10 nM	< 10 nM
